Activity calls are given as the source filed them. No rule for the calls is given here. A value given as a limit tells only on which side of the number the result lay.

Sequence of Ubiquitin carboxyl-terminal hydrolase 10 (Homo sapiens) (Q14694 whole entry, looked up): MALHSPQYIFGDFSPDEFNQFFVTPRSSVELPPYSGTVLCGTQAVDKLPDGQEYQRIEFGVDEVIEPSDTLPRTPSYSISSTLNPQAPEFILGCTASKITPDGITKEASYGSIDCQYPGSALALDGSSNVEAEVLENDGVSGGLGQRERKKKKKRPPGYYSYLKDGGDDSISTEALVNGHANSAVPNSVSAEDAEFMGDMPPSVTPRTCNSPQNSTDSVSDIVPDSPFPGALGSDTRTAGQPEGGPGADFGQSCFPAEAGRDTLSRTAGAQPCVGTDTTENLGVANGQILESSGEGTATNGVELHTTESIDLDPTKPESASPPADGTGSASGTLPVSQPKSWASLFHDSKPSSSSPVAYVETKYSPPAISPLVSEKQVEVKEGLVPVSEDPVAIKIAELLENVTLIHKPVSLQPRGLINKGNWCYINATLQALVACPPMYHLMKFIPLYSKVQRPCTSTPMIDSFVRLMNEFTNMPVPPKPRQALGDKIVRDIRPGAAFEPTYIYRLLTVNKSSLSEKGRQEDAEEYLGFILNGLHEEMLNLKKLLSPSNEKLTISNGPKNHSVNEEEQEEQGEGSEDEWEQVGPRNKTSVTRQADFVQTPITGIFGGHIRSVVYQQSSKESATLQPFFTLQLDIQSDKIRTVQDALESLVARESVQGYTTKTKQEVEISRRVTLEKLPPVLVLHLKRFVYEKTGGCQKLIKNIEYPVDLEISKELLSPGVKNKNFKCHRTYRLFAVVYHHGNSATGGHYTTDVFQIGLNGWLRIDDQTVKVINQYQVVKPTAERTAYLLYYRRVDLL

This experiment has as its target Ubiquitin carboxyl-terminal hydrolase 10 (Homo sapiens) (UniProt Q14694). Briefly: primary hit verification, biochemical, ubiquitin-specific protease 10 deubiquitylase inhibitors, concentration-effect titration (AID 1645863).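 Also: potency values describe inhibition of USP10 cleavage of a fluorogenic ubiquitin substrate.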 As to conditions: USP10 deubiquitinase enzymatic assay.
Take `Cc1ccc(C(=O)O)cc1NC(=O)C(Sc1cccc(NC(=O)c2ccccc2C)c1)c1ccccc1` (configuration not stated): the IC50 was > 40 µM (inactive).

For the compound `O=C(Nc1ccccc1Cc1ccccc1)c1nc2n(n1)-c1ccccc1S(=O)(=O)N2`, the IC50 is 25.3 µM.

For the compound `COc1ccc(C(=O)COC(=O)c2ccccc2NS(=O)(=O)c2ccc(O)c([N+](=O)[O-])c2)cc1`, the IC50 was 9.78 µM.

For `Cc1ccccc1NC(=O)Cn1c(=O)n(-c2ccc(CC(=O)NCCc3ccccc3)cc2)c(=O)c2sccc21`, the IC50 is 12.8 µM.

For `COC(=O)c1ccccc1NC(=O)CSc1nnc(CNc2ccc(F)cc2)n1CC1CCCO1` (configuration not stated), the IC50 was > 40 µM (inactive).

Turning to `c1ccc2sc(-c3csc(-c4ccc5c(c4)OCCO5)n3)nc2c1`, the IC50 was > 40 µM (inactive).

Turning to `CO/C=C/C(=O)c1cc2cnc3c(=N)cc(NC(C)=O)c([nH]1)c23`, the IC50 result is “inactive”.

Regarding `COc1ccc(-c2ccc(SCC(=O)Nc3ccc(F)cc3)nn2)cc1OC`, the IC50 was > 40 µM (inactive).

For `O=C(Nc1ccc(Br)cc1F)c1ccc(S(=O)(=O)N2CCCC2)cc1`, the IC50 was > 40 µM (inactive).

On to `CCOc1ccc(C2SCC(=O)Nc3c2c(=O)[nH]n3C2CCCCC2)cc1` (configuration not stated), for which the IC50 is > 40 µM (inactive).

On to `O=C(NC1CCCC1)C1CC(=O)N(c2cccc(-c3noc(-c4cccs4)n3)c2)C1` (configuration not stated), for which the IC50 is > 40 µM (inactive).

As for `O=c1[nH]c2ccc(S(=O)(=O)Nc3ccc(O)c4ccccc34)cc2[nH]1`, the IC50 was 39 µM.

Consider `COc1ccc(NS(=O)(=O)c2cc(NC(=O)CC(=O)c3ccc([N+](=O)[O-])cc3)ccc2C)cc1`, for which the IC50 is > 40 µM (inactive).

In the case of `O=C(Nc1cccc(Cl)c1)c1cc(-c2cccnc2)n[nH]1`, the IC50 is > 40 µM (inactive).

`Cc1ccc2[nH]c(=O)c(-c3nc4ccccn4c3NCc3ccccc3)cc2c1`: the IC50 was 23.7 µM.

With `CCCCCCCc1cc(OC(=O)c2c(CCCCCCC)cc(O)cc2O[C@@H]2O[C@H](CO)[C@@H](O)[C@H](O)[C@H]2O)cc(O)c1C(=O)O`, the IC50 is 3.94 µM.

As to `O=S(=O)(c1ccccc1Cl)N1CCN(c2ccc3nnc(-c4ccco4)n3n2)CC1`, the IC50 is > 40 µM (inactive).

In the case of `CCOCc1ccc(C(=O)N[C@H](C)c2nc3cc(-c4ccc(OC)cc4)ncn3n2)cc1`, the IC50 was > 40 µM (inactive).

As for `O=C(Nc1nc(-c2ccccc2)ns1)c1ccc2ncsc2c1`, the IC50 was 31.6 µM.

As to `COC(=O)c1ccc2c(=O)n(CCCCCC(=O)NCCc3ccccc3Cl)c(=O)[nH]c2c1`, the IC50 is > 40 µM (inactive).

For `CCOc1ccc(Oc2nc(CN3CCCC3)nc3sc(C)c(C)c23)cc1`, the IC50 was > 40 µM (inactive).

With `CN(C)c1ccc(S(=O)(=O)N2CCCCC2)cc1NC(=O)COc1ccccc1`, the IC50 is > 40 µM (inactive).

As for `O=C1C(=O)N(c2nc3ccc(F)cc3s2)C(c2ccc(F)cc2)/C1=C(\O)c1ccc(F)cc1` (configuration not stated), the IC50 is 11.5 µM.

For the compound `O=C(Cn1cc(C(=O)c2ccccc2)c(=O)c2cc(F)ccc21)Nc1ccc2c(c1)OCCO2`, the IC50 is > 40 µM (inactive).

On to `O=C(NC1CCCCCC1)c1cccc(S(=O)(=O)Nc2cc(C(F)(F)F)ccc2Cl)c1`, for which the IC50 was 21.1 µM.

Take `Cn1c(COc2cccc3cccnc23)nnc1SCC(=O)c1ccc(Cl)cc1Cl`: the IC50 was > 40 µM (inactive).

Turning to `Cc1cccc(NC(=O)Nc2ccccc2OCc2cc(=O)n3cccc(C)c3n2)c1`, the IC50 is 27.1 µM.

`CSc1nc2ncn(CC(=O)Nc3ccc(Br)cc3)c(=O)c2s1`: the IC50 is > 40 µM (inactive).

`O=C(NCc1ccc(F)cc1)c1cccc(Nc2nc3ccccc3n3cnnc23)c1`: the IC50 was 38 µM.

For `O=C(CCCn1c(=O)c2cc(Cl)ccc2n(CC(=O)Nc2cccc(F)c2)c1=O)NCc1ccco1`, the IC50 was > 40 µM (inactive).

As for `O=C(NCCc1ccccc1)c1ccc2c(=O)n(Cc3ccco3)c(=O)n(Cc3cccc([N+](=O)[O-])c3)c2c1`, the IC50 is 8.37 µM.

In the case of `Cc1[nH]c2ccc(F)cc2c(=O)c1CN1CCCCC1`, the IC50 was > 40 µM (inactive).

As to `COc1cc(NC(=O)c2ccc3c(c2)OCO3)ccc1-c1cc2ccccc2oc1=O`, the IC50 was > 40 µM (inactive).

Turning to `O=C(CSc1nc2cc(C(F)(F)F)ccc2s1)NCC(=O)c1ccccc1`, the IC50 is 18.1 µM.

In the case of `O=C(O)c1nccnc1C(=O)N1CCc2ccccc2C1`, the IC50 is > 40 µM (inactive).

`CCn1c(CNC(=O)c2cccc(C)c2)nnc1SCC(=O)N1CCc2ccccc21`: the IC50 is > 40 µM (inactive).

As for `O=C(Cn1c(=O)c2sccc2n(Cc2ccc([N+](=O)[O-])cc2)c1=O)NCCc1ccccc1`, the IC50 is > 40 µM (inactive).

For `COC(=O)c1ccccc1NC(=O)Cn1c(=O)n(CCCC(=O)NCc2ccco2)c(=O)c2ccccc21`, the IC50 is 13 µM.

For the compound `COc1ccc(NC(=O)Cn2cc(C(=O)c3ccccc3)c(=O)c3cc(Cl)ccc32)cc1OC`, the IC50 is 22.8 µM.

In the case of `Cc1ccccc1-n1ccc2nc(N3CCCC3)ncc2c1=O`, the IC50 was > 40 µM (inactive).

As for `COc1ccc(OC)c2c(C)cc(N3CC(C)CC(C)C3)nc12` (configuration not stated), the IC50 is > 40 µM (inactive).

Turning to `COc1ccc(NC(=O)c2nnc(C(=O)NCCN3CCCCCC3)s2)cc1`, the IC50 was > 40 µM (inactive).

Take `O=C(Cn1c(COc2ccccc2)nc2ccccc21)Nc1ccc(N2CCOCC2)cc1`: the IC50 is > 40 µM (inactive).

Take `O=C1CC(c2cc3c(cc2Br)OCO3)c2cc3c(cc2N1)OCCO3` (configuration not stated): the IC50 was > 40 µM (inactive).

Turning to `O=C(Nc1ccc(F)cc1)Nc1ccccc1OCc1cc(=O)n2ccccc2n1`, the IC50 is 26.3 µM.

Take `COc1cc2c(cc1OC)-c1cc(Nc3ccc(Br)cc3)nc(=O)n1CC2`: the IC50 is 13.7 µM.

Take `OC1CCCN(c2ncc(-c3cnccn3)c(-c3cccs3)n2)C1` (configuration not stated): the IC50 was > 40 µM (inactive).

Turning to `O=C(CNC(=O)c1ccc2nc(-n3cccc3)sc2c1)NCc1ccccc1`, the IC50 was > 40 µM (inactive).

For `CC(=O)Nc1ccc(C(=O)/C=C2\NCCc3cc4c(cc32)OCCCO4)cc1`, the IC50 is > 40 µM (inactive).

`COc1cccc(-c2cc(C(=O)Nc3cc(C)n(Cc4ccc(Cl)cc4)n3)no2)c1`: the IC50 is > 40 µM (inactive).

Regarding `CCOc1ccc2c(c1)c(=O)c(C(=O)c1ccccc1)cn2CC(=O)Nc1ccc(OC)cc1`, the IC50 was > 40 µM (inactive).

For `COc1ccccc1-c1nc(-c2cn(-c3ccc(F)cc3)nn2)no1`, the IC50 was 15.6 µM.

For `O=C(Nc1ccc(-n2cccc2)cc1)c1cccc([N+](=O)[O-])c1`, the IC50 is > 40 µM (inactive).

Consider `COc1cc2c(c(OCC(=O)Nc3ccc4c(c3)OCCO4)c1)C(=O)O[C@@H](C)CCCC(=O)CCCCC2`, for which the IC50 is 31.5 µM.

Consider `Cc1ccc(NC(=O)Cn2cc(C(=O)c3ccccc3)c(=O)c3cc(C)ccc32)cc1`, for which the IC50 was 23.9 µM.

Take `O=C1Cc2ccccc2C(=O)N1Cc1cccc(Cl)c1`: the IC50 was 24.1 µM.

As for `COc1ccc(NC(=O)Cn2c(C)cc(=O)n3nc(-c4cccc(C)c4)nc23)cc1`, the IC50 was 37 µM.

`C=C[C@]1(C)CC[C@]2(C)[C@@H](C1)[C@@H](O)C[C@H]1[C@]3(C)CCC[C@@]12OC3=O`: the IC50 is > 40 µM (inactive).

As for `CC(C)=CCc1c(O)cc2c(c1C)OC(=O)c1c(C)c(Cl)c(O)c(CO)c1O2`, the IC50 was 15.9 µM.

Take `COc1cccc(NC(=O)CCc2nnc3n(CCCOC(C)C)c(=O)c4ccccc4n23)c1`: the IC50 is > 40 µM (inactive).

In the case of `CN1CC(c2ncn[nH]2)c2cc(C(=O)NCc3cccc(F)c3)ccc21` (configuration not stated), the IC50 was > 40 µM (inactive).

With `Cc1cccc(Cl)c1NC(=O)Nc1ccc(NC(=O)c2ccccc2O)cc1`, the IC50 was 13.2 µM.

For `COc1ccccc1Nc1ncc(C(=O)NCc2ccc(F)cc2)c2ccccc12`, the IC50 was > 40 µM (inactive).

Turning to `Cc1nn(-c2ccccc2)c2c1N=C1C(Cl)=CC(Cl)=CN1C21C(=O)Nc2ccccc21` (configuration not stated), the IC50 was > 40 µM (inactive).

Consider `CCOC(=O)N1CCC(NC(=O)c2cc(C(=O)Nc3ccc(S(=O)(=O)N4CCCCC4)cc3)ccc2CO)CC1`, for which the IC50 was > 40 µM (inactive).

For `COc1ccc2cc(C(=O)N3CCC(C(C)C(=O)NCc4cccc(F)c4)CC3)[nH]c2c1` (configuration not stated), the IC50 was 38 µM.

As to `Cc1ccnc(Nc2nc(-c3ccccc3)c3cc(Cl)ccc3n2)n1`, the IC50 was 14.7 µM.

Take `O=C(Nc1ccccc1)Nc1ccc(F)c(-c2nnc(-c3ccccc3)o2)c1`: the IC50 is > 40 µM (inactive).

As to `Cc1ccc(CNC(=O)c2ccc3nn(CC(=O)Nc4ccccc4F)c(=O)n3c2)cc1`, the IC50 is > 40 µM (inactive).

Regarding `Cc1ccc(C)c(S(=O)(=O)N2CCN(c3ccc4nnc(-c5ccco5)n4n3)CC2)c1`, the IC50 is > 40 µM (inactive).

For `O=C(Nc1ccc2c(c1)OCCO2)C1CCC(Cn2cnc3ccccc3c2=O)CC1` (configuration not stated), the IC50 was > 40 µM (inactive).

For the compound `COc1cc(OC)c2c(c1)C(=O)C1=C(COC(C)(O)C1)C2=O` (configuration not stated), the IC50 was > 40 µM (inactive).

Take `COc1ccc(-n2ccn3c(CCC(=O)Nc4cccc(C)c4)nnc3c2=O)cc1`: the IC50 was > 40 µM (inactive).

With `C[C@H](Cc1cc2c(cc1O)OCO2)[C@@H](C)Cc1cc2c(cc1O)OCO2`, the IC50 is 19.6 µM.

As for `Cc1c(-c2nc(-c3ccccc3Cl)no2)nnn1-c1cccc(F)c1`, the IC50 was > 40 µM (inactive).

`COc1cccc(C(=O)Nc2nc(-c3nnn(-c4ccc(C)c(F)c4)c3C)ns2)c1`: the IC50 was > 40 µM (inactive).

With `Cc1ccccc1Cn1c(=O)n(CC2CCC(C(=O)NC3CCCC3)CC2)c(=O)c2ccccc21` (configuration not stated), the IC50 is > 40 µM (inactive).

Turning to `Cc1cccn2c(=O)c3cc(C#N)c(=O)n(-c4cccc(C(F)(F)F)c4)c3nc12`, the IC50 was > 40 µM (inactive).

Take `COc1cc2c(oc(=O)c3cc(C)cc(OC)c32)c2c([C@@H]3OC(C)[C@@H](O)[C@@](C)(O)C3O)ccc(O)c12` (some centres not stated): the IC50 was > 40 µM (inactive).

For `CC(=O)NS(=O)(=O)c1ccc(NC(=O)/C=C/c2cn(-c3ccccc3)nc2-c2ccccc2)cc1`, the IC50 is 18.8 µM.

Turning to `Cc1ccc(-c2nc3c(c(SCC(=O)c4ccccc4)n2)COC(C)(C)C3)cc1`, the IC50 is > 40 µM (inactive).

On to `O=C(Cn1cnc2cc([N+](=O)[O-])ccc2c1=O)NCc1ccc2c(c1)OCO2`, for which the IC50 is > 40 µM (inactive).

Source of the values: PubChem BioAssay AID1645863 (Buhrlage Lab, Dana-Farber Cancer Institute and Novartis …, 2021).
